“Also recorded” adds a separate entry of the source.
Columns and labels:
Type in all cases: cell-based, human
[1] = test system: autophagy-related protein markers (LC3-II, p62, p-AMPK, p-Erk, p-ULK, p-mTOR) in SH-SY5Y cells; experiment: Western blot of autophagy-related protein markers in SH-SY5Y cells
Protocol: (§1) Human neuroblastoma (SH-SY5Y) cells were purchased from the American Type Culture Collection (Manassas, Va., USA) and cultured in DMEM supplemented with 10% heat-inactivated FBS and 1% penicillin/streptomycin. The SH-SY5Y cells were cultured at 37° C. in a humid atmosphere containing 5% CO2. […] The SH-SY5Y cells were transfected with AMPK siRNA and then administered with AKNS-2 at 36 hours after siRNA transfection. […] After 24 hours from treatment with the samples, the SH-SY5Y cells were recovered and used for subsequent analysis. At 24 hours after drug treatment, the culture medium was removed from the 6-well plate, and the cells were gently washed once with cold saline. Subsequently, 1 mL of cold saline was added to each well, and cells attached to the bottom were floated by rubbing the bottom with a 1 mL pipette. The suspension was collected in a 1.5 mL tube and centrifuged at 4° C. at 13000×g for 5 minutes. After removing a supernatant, 50 μL of a RIPA lysis buffer including a protease inhibitor cocktail (Roche, Mannheim, Germany) and purchased from Cell Signaling Technology (Danvers, Mass., USA) was added to the cell pellet. After shaking the mixture at 4° C. for 30 minutes, the obtained cells were centrifuged at 4° C. at 13000×g for 20 minutes. A supernatant was collected therefrom, and a concentration of proteins was measured using a standard curve constructed using BSA by the Bradford method. Then, the supernatant was diluted with a loading buffer and heated at 99° C. for 5 minutes. Resultant cells were used in a subsequent western blot analysis. Protein markers contained in lysates of the SH-SY5Y cells and brain tissue of the mice (SNpc and ST) were measured by western blot analysis. Briefly, after determining a concentration, a protein sample (20 μg) was separated by 8%, 10%, or 15% sodium dodecyl sulfate-polyacrylamide gel electrophoresis (SDS-PAGE). Then, proteins separated on the gel were transferred to a polyvinylidene fluoride (PVDF) membrane for 45 minutes using a Trans-Blot Turbo Transfer System (Bio-Rad, USA). […] The membrane was further incubated with monoclonal primary antibodies derived from rabbits (anti-GAPDH, anti-AMPK, anti-p-AMPK, anti-ULK, anti-p-ULK555, anti-Erk, anti-p-Erk, anti-mTOR, anti-p-mTOR, anti-LC3B, anti-TH, and anti-α-synuclein antibodies). The primary antibodies were diluted in a blocking buffer at a ratio of 1:1000 and incubated overnight at 4° C. On the second day, the membrane was washed with TBST three times (10 minutes each) and incubated at room temperature in a horseradish peroxidase-conjugated goat anti-rabbit IgG secondary antibody (diluted in a blocking buffer at a ratio of 1:2000). After incubating in the secondary antibody for 1 hour, the membrane was washed for 30 minutes. The protein blots on the membrane were developed using an ECL detection kit and visualized using an LAS-4000 mini system (Fujifilm, Japan). The intensity of the protein blots was quantified using Multi Gauge software (Fujifilm, Japan).

[2] = test system: GFP-RFP-LC3-II puncta in SH-SY5Y cells; experiment: Tandem fluorescent protein quenching assay (RFP-GFP-LC3); details: transfected SH-SY5Y cells, AKNS-2 10 μM alone vs control cells
Protocol: SH-SY5Y cells were cultured in a 24-well plate at a density of 8×10^4 cells/well on a glass cover slip. Transfection was performed in accordance with guidelines of the autophagy tandem RFP-GFP-LC3B kit. After culturing the cells for 24 hours, the cells were treated with an LC3B reagent. After the transfected cells were incubated for 24 hours, 50 nM Wart or 100 nM Baf was administered thereto, and then AKNS-2 (10 μM) was added thereto. The cells were immobilized with 4% paraformaldehyde and permeabilized with 0.1% Triton X100. Nuclei thereof were stained with 4,6-diamidino-2-phenylindole (DAPI, 25 μg/mL). Fluorescent signals were detected using a confocal microscope (Leica, Solms, Germany).

SH-SY5Y cells = experiment: MTT assay to measure cell viability; details: 24 hours
Protocol: Cell viability was detected using an MTT assay kit (Z-Cytox). Briefly, the SH-SY5Y cells were seeded on a 96-well plate at a density of 2×10^4 cells/well with 100 μL of a culture medium. After 24 hours, the SH-SY5Y cells were treated with AKNS-2 and/or MPP^+ having desired concentrations to identify cytotoxicity of AKNS-2 and MPP^+. After 24 hours, 10 μL of the MTT reagent was added to each well of the 96-well plate including the cells. Absorbance was measured at 450 nm using a microplate spectrophotometer (BioTek, Vt., USA). […] The next day, absorbance was measured at 1 hour after adding the MTT reagent thereto.

[3] = test system: LC3, p62, TH and α-synuclein in SH-SY5Y cells; experiment: Western blot of LC3, p62, TH and α-synuclein in MPP^+-treated SH-SY5Y cells (in vitro PD model)
Protocol: as §1

[4] = AKNS-2 5 μM and 10 μM, vs control

## C[C@@H]1O[C@@H](O[C@@H]2[C@@H](O)[C@H](O[C@@H]3[C@@H](O[C@@H]4OC[C@@H](O)[C@H](O)[C@H]4O)[C@@H](O)[C@H](O[C@H]4[C@H](OC(=O)[C@]56CCC(C)(C)C[C@H]5C5=CC[C@@H]7[C@@]8(C)C[C@H](O)[C@H](O[C@@H]9O[C@H](CO)[C@@H](O)[C@H](O[C@@H]%10OC[C@@H](O)[C@H](O)[C@H]%10O)[C@H]9O)[C@@](C)(CO)[C@@H]8CC[C@@]7(C)[C@]5(C)C[C@H]6O)OC[C@H](O)[C@@H]4O)O[C@H]3C)OC[C@H]2O)[C@H](O)[C@H](O)[C@H]1O [Compound 1, 3-O-β-D-xylopyranosyl-(1→3)-β-D-glucopyranosylpolygalacic acid 28-O-α-L-rhamnopyranosyl-(1→3)-β-D-xylopyranosyl-(1→4)-[β-D-xylopyranosyl-(1→3)]-α-L-rhamnopyranosyl-(1→2)-α-L-arabinopyranosyl ester]
[1]; 24 hours, 10 μM and 20 μM
  expression level of p-Erk: the expression level of p-Erk significantly increased
  expression of p-mTOR: The expression of p-mTOR was inhibited
[1]; 24 hours, 5, 10 and 20 μM
  expression level of p-AMPK: the expression levels of p-AMPK and p-ULK significantly increased
  expression level of p-ULK: the expression levels of p-AMPK and p-ULK significantly increased
  expression of LC3-II: induced the expression of LC3-II, which is an important autophagy marker, in a dose-dependent manner
[1]; AKNS-2 5 μM and 10 μM, 24 hours, vs control
  expression level of LC3-II: The expression level of LC3-II was significantly increased
[1]; [4]
  expression level of p-Erk: significantly increased expression levels of p-Erk
  expression of p-AMPK: Significantly increased expression
  expression of p-ULK555: significantly increased expression of p-ULK555
[1]; AKNS-2 10 μM alone
  expression level of LC3-II: significantly increased the expression level of LC3-II
  expression of p62: induced a significant decrease in expression of p62
[1]; AKNS-2 10 μM, vs control
  expression of p-mTOR: significantly inhibited the expression p-mTOR
[1]; AKNS-2 (5 μM and 10 μM), AMPK siRNA experiment, normal cells
  expression of p-mTOR: significantly inhibited the expression of p-mTOR
[2]
  accumulation of GFP-RFP-LC3-II puncta: more cytoplasmic puncta stained with green and red fluorescence were observed compared to in the control cells
SH-SY5Y cells; AKNS-2 5 μM and 10 μM 1 hour before 2 mM MPP^+
  cell viability damaged by MPP^+ (MTT): significantly improved cell viability damaged by 2 mM MPP^+; also recorded: significantly enhanced cell viability that had decreased by MPP^+; also recorded: reversed the effects of MPP^+ on cell viability
SH-SY5Y cells; AKNS-2 alone, up to 40 μM
  cytotoxicity (cell viability, MTT): did not significantly affect cytotoxicity
[3]; AKNS-2 (5 μM and 10 μM) + 2 mM MPP^+ vs MPP^+ alone
  expression of TH: the MPP^+-induced decrease in expression of TH was reversed; also recorded: the decreased expression of TH may be restored; also recorded: offset toxicity of MPP^+ and reversed the expression of TH
[3]; AKNS-2 + 2 mM MPP^+ vs MPP^+ alone
  expression of α-synuclein: canceled out the effects of MPP^+ and inhibited the expression of α-synuclein; also recorded: the increased expression level of α-synuclein was decreased
